From ChEMBL document CHEMBL1201862, “PubChem BioAssay data set” (2004)
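Protocol summary: plate cells (96-well), add compound at 5 concentrations, incubate 48 h, interpolate endpoints linearly. At the GI50, growth is halved.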 Active and inactive are the calls of the source. Cut-off read from the data, not from the text of the source: active = GI50 up to about 1.1 µM and inactive = higher.

Tests used:
Assay in all cases: growth of human tumour cells (NCI), 48 h
[1] = tested on: SF-268
[2] = tested on: SNB-75
[3] = tested on: HCT-15
[4] = tested on: OVCAR-8
[5] = tested on: HCT-116
[6] = tested on: LOX IMVI
[7] = tested on: SN12C
[8] = tested on: NCI-H226
[9] = tested on: K562
[10] = tested on: HCC 2998
[11] = tested on: CCRF-CEM
[12] = tested on: NCI-H23
[13] = tested on: ACHN
[14] = tested on: MDA-MB-231
[15] = tested on: MOLT-4
[16] = tested on: UO-31
[17] = tested on: PC-3
[18] = tested on: KM12
[19] = tested on: NCI/ADR-RES
[20] = tested on: 786-0

Row | Structure (SMILES) | GI50 [1] | GI50 [2] | GI50 [3] [µM] | GI50 [4] | GI50 [5] | GI50 [6] | GI50 [7] | GI50 [8] | GI50 [9] | GI50 [10] | GI50 [11] | GI50 [12] | GI50 [13] | GI50 [14] | GI50 [15] | GI50 [16] | GI50 [17] | GI50 [18] | GI50 [19] | GI50 [20]
1 | COC(=O)C1=C(OC(=O)/C(=C/c2ccccc2)c2ccc(Cl)cc2)C(C(=O)OC)[C@@]2(O)[C@@H](C(=O)OC)[C@H](C)C[C@@H]1[C@@H]2C(=O)OC (stereo not given in full) | > 100 µM (inactive) | > 100 µM (inactive) | > 100 | > 100 µM (inactive) | > 100 µM (inactive) | > 100 µM (inactive) | > 100 µM (inactive) | > 100 µM (inactive) | 2.37 µM (inactive) | > 100 µM (inactive) | > 100 µM (inactive) | > 100 µM (inactive) | > 100 µM (inactive) | > 100 µM (inactive) | 79.3 µM (inactive) | > 100 µM (inactive) | > 100 µM (inactive) | > 100 µM (inactive) | > 100 µM (inactive) | > 100 µM (inactive)
2 | O=C(/C=C/c1cccs1)c1cccc(C(=O)/C=C/c2cccs2)n1 | 21.5 µM (inactive) | 65.9 µM (inactive) | 24 | 3.68 µM (inactive) | 2.82 µM (inactive) | 2.05 µM (inactive) | 19.9 µM (inactive) | > 100 µM (inactive) | 3.93 µM (inactive) | > 100 µM (inactive) | 2.82 µM (inactive) | 31 µM (inactive) | 11.5 µM (inactive) | 63.2 µM (inactive) | 2.29 µM (inactive) | 21.3 µM (inactive) | 36.3 µM (inactive) | 6.43 µM (inactive) | > 60 µM (inactive) | 6.81 µM (inactive)
3 | COc1cc(C(=O)OC2CC(C)=CC[C@@]3(C)CC[C@](O)(C(C)C)C23)ccc1O (stereo not given in full) | 19.5 µM (inactive) | 18.7 µM (inactive) | 18.6 | 18.2 µM (inactive) | 19 µM (inactive) | 16.2 µM (inactive) | 18.4 µM (inactive) | 15.6 µM (inactive) | 17.4 µM (inactive) | 14.5 µM (inactive) | 26.3 µM (inactive) | 17.8 µM (inactive) | 18.4 µM (inactive) | 15 µM (inactive) | 13.2 µM (inactive) | 16.4 µM (inactive) | 17.4 µM (inactive) | 15.9 µM (inactive) | 15.4 µM (inactive) | 17.3 µM (inactive)
4 | COC1C(N)C(OC2C(Oc3cccc4c(O)c5c(=O)oc6ccc(C)c7c(=O)oc(c34)c5c67)OC(C)C(O)C2(C)O)OC(C)C1O (stereo not given) | < 0.0119 µM (active) | 0.0313 µM (active) | 0.0925 | 0.0154 µM (active) | < 0.01 µM (active) | < 0.0125 µM (active) | 0.0178 µM (active) | 0.0201 µM (active) | < 0.0154 µM (active) | 0.11 µM (active) | < 0.0236 µM (active) | 0.0269 µM (active) | 0.0399 µM (active) | 0.109 µM (active) | < 0.0243 µM (active) | 0.0746 µM (active) | 0.0246 µM (active) | 0.0313 µM (active) | 0.427 µM (active) | < 0.0123 µM (active)
5 | Cc1n[nH]c(C(F)(F)F)c1/N=N/N1CCOCC1 | 13.1 µM (inactive) | 12.5 µM (inactive) | 8.81 | 3.76 µM (inactive) | 1.94 µM (inactive) | 1.97 µM (inactive) | 11 µM (inactive) | 8.53 µM (inactive) | 1.08 µM (active) | 1.53 µM (inactive) | 0.423 µM (active) | 4.06 µM (inactive) | 4.52 µM (inactive) | 12.8 µM (inactive) | 1.84 µM (inactive) | 2.4 µM (inactive) | 7.16 µM (inactive) | 6.37 µM (inactive) | 6.76 µM (inactive) | 2.63 µM (inactive)
6 | CO[C@]1(c2ccc([N+](=O)[O-])cc2)Oc2ccccc2C(=O)[C@@]1(Nc1ccc(C=O)cc1)OC | > 10 µM (inactive) | > 10 µM (inactive) | > 10 | > 10 µM (inactive) | > 10 µM (inactive) | > 10 µM (inactive) | > 10 µM (inactive) | > 10 µM (inactive) | > 10 µM (inactive) | > 10 µM (inactive) | > 10 µM (inactive) | > 10 µM (inactive) | > 10 µM (inactive) | > 10 µM (inactive) | > 10 µM (inactive) | > 10 µM (inactive) | > 10 µM (inactive) | > 10 µM (inactive) | > 10 µM (inactive) | > 10 µM (inactive)
7 | CCC(CS(=O)(=O)O)[N+](=O)[O-] (stereo not given) | > 100 µM (inactive) | > 100 µM (inactive) | > 100 | > 100 µM (inactive) | > 100 µM (inactive) | > 100 µM (inactive) | > 100 µM (inactive) | > 100 µM (inactive) | > 100 µM (inactive) | > 100 µM (inactive) | > 100 µM (inactive) | > 100 µM (inactive) | > 100 µM (inactive) | > 100 µM (inactive) | > 100 µM (inactive) | > 100 µM (inactive) | > 100 µM (inactive) | > 100 µM (inactive) | > 100 µM (inactive) | > 100 µM (inactive)
8 | O=C(CCCl)NN=C1NCCN1 | > 100 µM (inactive) | > 100 µM (inactive) | > 100 | > 100 µM (inactive) | > 100 µM (inactive) | > 100 µM (inactive) | > 100 µM (inactive) | > 100 µM (inactive) | > 100 µM (inactive) | > 100 µM (inactive) | > 100 µM (inactive) | > 100 µM (inactive) | > 100 µM (inactive) | > 100 µM (inactive) | > 100 µM (inactive) | > 100 µM (inactive) | > 100 µM (inactive) | > 100 µM (inactive) | > 100 µM (inactive) | > 100 µM (inactive)
9 | CCCCCC[C@H]([C@H](C)O)n1cnc2c(N)ncnc21 | > 100 µM (inactive) | 62.7 µM (inactive) | > 100 | > 100 µM (inactive) | > 100 µM (inactive) | > 100 µM (inactive) | > 100 µM (inactive) | > 100 µM (inactive) | > 100 µM (inactive) | > 100 µM (inactive) | > 100 µM (inactive) | > 100 µM (inactive) | 61.5 µM (inactive) | > 100 µM (inactive) | > 100 µM (inactive) | 91.8 µM (inactive) | > 100 µM (inactive) | > 100 µM (inactive) | > 100 µM (inactive) | > 100 µM (inactive)
10 | CC(=O)NNc1nc(C)c(C(/C=C/c2ccc([N+](=O)[O-])cc2)=N/N)s1 | > 100 µM (inactive) | 87.9 µM (inactive) | > 100 | > 100 µM (inactive) | > 100 µM (inactive) | 86.9 µM (inactive) | 84.5 µM (inactive) | > 100 µM (inactive) | 55.5 µM (inactive) | 66.1 µM (inactive) | > 100 µM (inactive) | > 100 µM (inactive) | > 100 µM (inactive) | 25.4 µM (inactive) | > 100 µM (inactive) | > 100 µM (inactive) | > 100 µM (inactive) | > 100 µM (inactive) | > 100 µM (inactive) | > 100 µM (inactive)
11 | N#Cc1nc(-c2cc([N+](=O)[O-])cc([N+](=O)[O-])c2)oc1N | > 10 µM (inactive) | > 10 µM (inactive) | > 10 | > 10 µM (inactive) | > 10 µM (inactive) | > 10 µM (inactive) | > 10 µM (inactive) | > 10 µM (inactive) | > 10 µM (inactive) | > 10 µM (inactive) | > 10 µM (inactive) | > 10 µM (inactive) | > 10 µM (inactive) | > 10 µM (inactive) | > 10 µM (inactive) | 8.93 µM (inactive) | > 10 µM (inactive) | > 10 µM (inactive) | > 10 µM (inactive) | > 10 µM (inactive)
12 | CC1(C)CCC[C@@]2(C)C1CC[C@@]1(CO)O[C@H](C3=CC(=O)OC3O)C[C@H]12 (stereo not given in full) | 19.7 µM (inactive) | 15.3 µM (inactive) | 7.57 | 15.6 µM (inactive) | 6.1 µM (inactive) | 1.56 µM (inactive) | 13.3 µM (inactive) | 18.2 µM (inactive) | 4.76 µM (inactive) | 17.4 µM (inactive) | 2.74 µM (inactive) | 13.6 µM (inactive) | 14 µM (inactive) | 18.8 µM (inactive) | 3.03 µM (inactive) | 15.2 µM (inactive) | 13.8 µM (inactive) | 20.8 µM (inactive) | 15 µM (inactive) | 15 µM (inactive)
13 | C[C@]12OC(=O)[C@]3(O)CC[C@H]4[C@@H](C[C@@H](O)[C@@]5(Cl)CC=CC(=O)[C@]45C)[C@]45OCC6C(=O)O[C@@H]1C[C@@]6(C)[C@H](C4=O)[C@@]32O5 (stereo not given in full) | 0.767 µM (active) | 9.31 µM (inactive) | 1.46 | 1.41 µM (inactive) | 0.656 µM (active) | 0.951 µM (active) | 1.86 µM (inactive) | 1.91 µM (inactive) | 0.469 µM (active) | 0.0946 µM (active) | 0.22 µM (active) | 0.542 µM (active) | 1.05 µM (active) | 3.02 µM (inactive) | 0.615 µM (active) | 1.23 µM (inactive) | 2.3 µM (inactive) | 2.15 µM (inactive) | 2.6 µM (inactive) | 0.617 µM (active)
14 | NCCCNCCCCN1CC1 | 1.99 µM (inactive) | 0.372 µM (active) | 8.41 | 2.07 µM (inactive) | 6.92 µM (inactive) | 0.637 µM (active) | 3.77 µM (inactive) | 8.49 µM (inactive) | 2.49 µM (inactive) | 7.06 µM (inactive) | 0.836 µM (active) | 6.7 µM (inactive) | 1.3 µM (inactive) | 1.4 µM (inactive) | 1.26 µM (inactive) | 7.18 µM (inactive) | 5.69 µM (inactive) | 6.98 µM (inactive) | 3.33 µM (inactive) | 0.713 µM (active)
